Results published in ChEMBL document CHEMBL1201862, “PubChem BioAssay data set” (2004).
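1) Cells in 96-well plates. 2) Compound, 48 h, 5 concentrations. 3) Linear interpolation between surrounding doses. 4) Unreached endpoint = highest concentration. Abbreviation: GI50, concentration required for 50% inhibition of growth.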 The source made the active and inactive calls. Cut-off read from the data, not from the text of the source: active = GI50 up to about 1.1 µM and inactive = higher.

How the values were obtained:
Test in all cases: NCI tumour cell line growth inhibition, 48 h
A498 = tested on: A498
A549 = tested on: A549
COLO 205 = tested on: COLO 205
HCC 2998 = tested on: HCC 2998
HT-29 = tested on: HT-29
KM12 = tested on: KM12
NCI-H226 = tested on: NCI-H226
OVCAR-3 = tested on: OVCAR-3
OVCAR-5 = tested on: OVCAR-5
OVCAR-8 = tested on: OVCAR-8
SK-MEL-5 = tested on: SK-MEL-5
SNB-19 = tested on: SNB-19
SR = tested on: SR
SW-620 = tested on: SW-620
U-251 = tested on: U-251
UACC-257 = tested on: UACC-257
UO-31 = tested on: UO-31
Hs-578T = tested on: Hs-578T
NCI/ADR-RES = tested on: NCI/ADR-RES

Measured: GI50

C/C(=N\NC(N)=O)C(CN1CCCCC1)C(c1ccccc1)c1c(O)c2ccccc2oc1=O (stereo unspecified)
inactive: A498 > 100 µM | A549 > 100 µM | COLO 205 > 100 µM | HCC 2998 > 100 µM | HT-29 > 100 µM | KM12 > 100 µM | NCI-H226 > 100 µM | OVCAR-3 > 100 µM | OVCAR-5 > 100 µM | OVCAR-8 > 100 µM | SK-MEL-5 > 100 µM | SNB-19 > 100 µM | SR > 100 µM | SW-620 > 100 µM | U-251 > 100 µM | UACC-257 > 100 µM | UO-31 > 100 µM

COc1ccc2c(CCNS(=O)(=O)c3ccccc3)c(C(C)=O)[nH]c2c1[N+](=O)[O-]
inactive: A498 > 100 µM | A549 > 100 µM | COLO 205 > 100 µM | HCC 2998 > 100 µM | HT-29 > 100 µM | KM12 > 100 µM | NCI-H226 43.3 µM | OVCAR-3 > 100 µM | OVCAR-5 > 100 µM | OVCAR-8 65.2 µM | SNB-19 > 100 µM | SR > 100 µM | SW-620 > 100 µM | U-251 > 100 µM | UACC-257 > 100 µM | UO-31 > 100 µM

CN(C)CCCSc1c2ccccc2nc2cc(NCC(=O)Nc3ccccc3-c3ccccc3NC(=O)CNc3ccc4c(SCCCN(C)C)c5ccccc5nc4c3)ccc12
inactive: A498 > 100 µM | A549 > 100 µM | COLO 205 45.1 µM | HCC 2998 > 100 µM | HT-29 > 100 µM | KM12 84.3 µM | NCI-H226 > 100 µM | OVCAR-3 > 100 µM | OVCAR-5 > 100 µM | OVCAR-8 > 100 µM | SK-MEL-5 > 100 µM | SNB-19 > 100 µM | SR > 100 µM | SW-620 > 100 µM | U-251 > 100 µM | UACC-257 > 100 µM | UO-31 > 100 µM

Cc1ccc([Se](=C(C(=O)c2ccccc2)C(=O)c2ccccc2)c2ccc(C)cc2)cc1
inactive: A498 14.8 µM | A549 25.3 µM | COLO 205 17.3 µM | HT-29 18.7 µM | Hs-578T 22.8 µM | KM12 18.9 µM | NCI-H226 20.2 µM | NCI/ADR-RES 34.3 µM | OVCAR-3 20.6 µM | OVCAR-5 38.8 µM | OVCAR-8 26.4 µM | SK-MEL-5 18.7 µM | SNB-19 27.4 µM | SR 12.7 µM | SW-620 29.5 µM | U-251 20.6 µM | UACC-257 17.5 µM | UO-31 30.4 µM

O=C(CC(=O)Nc1cccc(Cl)c1)NNCC(=O)Nc1nnc(-c2ccccc2)s1
inactive: A498 20.8 µM | A549 > 100 µM | COLO 205 > 100 µM | HCC 2998 > 100 µM | HT-29 80 µM | KM12 > 100 µM | NCI-H226 22.9 µM | OVCAR-3 32.7 µM | OVCAR-5 > 100 µM | OVCAR-8 20.8 µM | SK-MEL-5 45.8 µM | SNB-19 36 µM | SR 41.2 µM | SW-620 39.4 µM | U-251 34 µM | UACC-257 99.1 µM | UO-31 45 µM

O=C(Nc1ccc(Cl)c(Cl)c1)C(=O)Nn1c(S)nc2ccccc2c1=O
inactive: A498 > 100 µM | A549 > 100 µM | COLO 205 > 100 µM | HCC 2998 > 100 µM | HT-29 > 100 µM | KM12 > 100 µM | NCI-H226 > 100 µM | OVCAR-5 > 100 µM | OVCAR-8 > 100 µM | SK-MEL-5 > 100 µM | SNB-19 > 100 µM | SR > 100 µM | SW-620 > 100 µM | U-251 > 100 µM | UACC-257 > 100 µM | UO-31 > 100 µM

CC1NOC(=O)C1/N=N/c1ccc(Cl)cc1Cl (stereo unspecified)
inactive: A498 35.3 µM | A549 23 µM | COLO 205 20 µM | HCC 2998 29.9 µM | HT-29 32.8 µM | KM12 15.1 µM | NCI-H226 25.4 µM | OVCAR-3 16.4 µM | OVCAR-5 69.7 µM | OVCAR-8 31.6 µM | SK-MEL-5 25.8 µM | SNB-19 22.6 µM | SR 18.7 µM | SW-620 7.98 µM | U-251 18.5 µM | UACC-257 24.5 µM | UO-31 24.4 µM

C/C(=N\NS(=O)(=O)c1ccc(C)cc1)C(CN1CCOCC1)C(c1ccccc1)c1c(O)c2ccccc2oc1=O (stereo unspecified)
inactive: A498 > 100 µM | A549 > 100 µM | COLO 205 40.8 µM | HT-29 > 100 µM | KM12 > 100 µM | NCI-H226 > 100 µM | OVCAR-3 89.5 µM | OVCAR-5 > 100 µM | OVCAR-8 > 100 µM | SK-MEL-5 > 100 µM | SNB-19 > 100 µM | SR 19.7 µM | SW-620 30.6 µM | U-251 > 100 µM | UACC-257 > 100 µM | UO-31 72.3 µM

COc1ccc(-c2cc(-c3ccccc3)c(C#N)c(=O)[nH]2)cc1
inactive: A498 > 100 µM | A549 > 100 µM | COLO 205 > 100 µM | HCC 2998 > 100 µM | HT-29 > 100 µM | KM12 > 100 µM | NCI-H226 > 100 µM | OVCAR-3 > 100 µM | OVCAR-5 > 100 µM | OVCAR-8 > 100 µM | SK-MEL-5 > 100 µM | SNB-19 > 100 µM | SR > 100 µM | SW-620 > 100 µM | U-251 > 100 µM | UACC-257 > 100 µM | UO-31 > 100 µM

CCNC(=O)C#CC(=O)NCC
inactive: A498 > 10 µM | A549 > 60.5 µM | COLO 205 44.6 µM | HCC 2998 > 100 µM | HT-29 > 100 µM | KM12 > 100 µM | NCI-H226 > 10 µM | OVCAR-3 > 100 µM | OVCAR-5 > 100 µM | OVCAR-8 > 100 µM | SK-MEL-5 > 100 µM | SNB-19 > 100 µM | SR > 41.9 µM | SW-620 > 48 µM | U-251 > 91.4 µM | UACC-257 > 100 µM | UO-31 > 100 µM

CC(C)(C)c1cc(Oc2ccc(C#N)c(C#N)c2)cc(C(C)(C)C)c1
inactive: A498 > 100 µM | A549 > 100 µM | COLO 205 > 100 µM | HCC 2998 > 100 µM | HT-29 > 100 µM | KM12 > 100 µM | NCI-H226 > 100 µM | OVCAR-3 > 100 µM | OVCAR-5 > 100 µM | OVCAR-8 > 100 µM | SK-MEL-5 > 100 µM | SNB-19 > 100 µM | SR 19.8 µM | U-251 85.5 µM | UACC-257 > 100 µM | UO-31 > 100 µM

CCOC(=O)c1sc2nc(SC)nc3c2c1NCN3C1CC1
inactive: A498 > 100 µM | A549 > 100 µM | COLO 205 > 100 µM | HCC 2998 > 100 µM | HT-29 > 100 µM | Hs-578T 74.5 µM | KM12 > 100 µM | NCI-H226 > 100 µM | NCI/ADR-RES > 100 µM | OVCAR-3 > 100 µM | OVCAR-5 > 100 µM | OVCAR-8 36.6 µM | SK-MEL-5 > 100 µM | SNB-19 > 100 µM | U-251 > 100 µM | UACC-257 > 100 µM | UO-31 > 100 µM
